What all share (type): functional, cell-based
The test system of one assay is Lu1. Kind of assay: Cytotoxicity against human Lu1 cells assessed as growth inhibition after 72 hrs by neutral red assay. The following applies: Lu1, 72 h.
The subject of another assay is KB. Kind of assay: Cytotoxicity against human KB cells assessed as growth inhibition after 72 hrs by neutral red assay.
A further assay relates to HepG2. Kind of assay: Cytotoxicity against human HepG2 cells assessed as growth inhibition after 72 hrs by neutral red assay. The following applies: HepG2, 72 h.
For the next assay, the system named is MCF7. As to the kind of experiment: Cytotoxicity against human MCF7 cells assessed as growth inhibition after 72 hrs by neutral red assay. The following applies: MCF7, 72 h.

As a reminder, the IC50 is the concentration that inhibits the measured activity by half.

Take `CC1(C)C(=O)CC[C@]2(C)[C@H]3C[C@@H](O)[C@@H]4C=CC(=O)[C@@]4(C)[C@]3(C)CC[C@@H]12`: the half-inhibitory concentration (IC50) in the assay with Lu1 came out at 5.1 µM; in the assay with KB, 5 µM; in the assay on HepG2, 5.3 µM; in the assay with MCF7, 4.7 µM.
Regarding `O=c1cc(-c2ccc(O)c(O)c2)oc2cc(O)cc(O)c12` [LUTEOLIN], the IC50 in the assay with Lu1 stood at 40.8 µM; in the assay with KB, 45.3 µM; with HepG2, 47.3 µM; with MCF7, 44.4 µM.
Regarding `CC1(C)CC[C@]2(C(=O)O)CC[C@]3(C)C(=CC[C@@H]4[C@@]5(C)CC[C@H](O)C(C)(C)[C@@H]5CC[C@]43C)[C@@H]2C1` [OLEANOLIC_ACID], the IC50 with Lu1, in the assay on KB, in the assay on HepG2 and in the assay on MCF7 was over 100 µM each time.
For `C/C(=C\CC[C@](C)(O)[C@H]1CC[C@]2(C)[C@@H]1CC[C@@H]1[C@@]3(C)CCC(=O)C(C)(C)[C@@H]3CC[C@]12C)C(=O)O`, the half-maximal inhibitory concentration (IC50) with Lu1, in the assay on KB, in the assay with HepG2 and with MCF7 was over 100 µM each time.
Turning to `CO[C@@H]1CC(=O)[C@]2(C)[C@@H]1[C@H](O)C[C@@H]1[C@@]3(C)CC[C@H](O)C(C)(C)[C@@H]3CC[C@]12C`, the IC50 worked out at 80.7 µM in the assay with Lu1, 78 µM with KB, 82 µM in the assay on HepG2 and 79.7 µM with MCF7.
As for `C/C(=C\CO)CCCC(C)CCCC(C)CCCC(C)C` (stereo not drawn), the IC50 in the assay with Lu1, in the assay with KB, with HepG2 and in the assay with MCF7 was over 100 µM in each case.
For `C[C@H]1[C@H](C)CC[C@]2(C)CC[C@]3(C)C(=CC[C@@H]4[C@@]5(C)CC[C@H](O)C(C)(C)[C@@H]5CC[C@]43C)[C@H]12`, the IC50 in the assay on Lu1, in the assay with KB, in the assay on HepG2 and in the assay with MCF7 was over 100 µM each time.
Regarding `CC1(C)[C@@H](O)CC[C@]2(C)[C@H]3C[C@@H](O)[C@@H]4C=CC(=O)[C@@]4(C)[C@]3(C)CC[C@@H]12`, the IC50 in the assay with Lu1 worked out at 5.2 µM; in the assay on KB it was 5.2 µM; in the assay with HepG2, 5.1 µM; with MCF7 it was 5 µM.
With `C[C@H]1[C@H](C)CC[C@]2(CO)CC[C@]3(C)C(=CC[C@@H]4[C@@]5(C)CC[C@H](O)C(C)(C)[C@@H]5CC[C@]43C)[C@H]12` [UVAOL], the IC50 worked out at 53.3 µM in the assay on Lu1, 37.7 µM in the assay on KB, 53.7 µM in the assay with HepG2 and 58.2 µM in the assay with MCF7.
For `CC1(C)CC[C@]2(C(=O)O)CC[C@]3(C)C(=CC[C@@H]4[C@@]5(C)C[C@@H](O)[C@H](O)C(C)(C)[C@@H]5CC[C@]43C)[C@@H]2C1` [MASLINIC ACID], in that order: over 100 µM, over 100 µM, over 100 µM and over 100 µM.
For the compound `C[C@H]1[C@H](C)CC[C@]2(C(=O)O)CC[C@]3(C)C(=CC[C@@H]4[C@@]5(C)CC[C@H](O)C(C)(C)[C@@H]5CC[C@]43C)[C@H]12` [URSOLIC ACID], the IC50 in the assay on Lu1 was 11.5 µM; with HepG2, 40.2 µM; in the assay with MCF7 it was 9.3 µM.
On to `C=C(C)[C@@H]1CC[C@@]2(C)[C@H]1[C@H]1CC[C@@H]3[C@@]4(C)CCC(=O)C(C)(C)[C@@H]4CC[C@@]3(C)[C@]1(C)C[C@@H]2O`, for which the IC50 in the assay with Lu1 came to 61.5 µM; in the assay with KB, 30.5 µM; in the assay on HepG2 it was 50.4 µM; in the assay with MCF7, 48 µM.
On to `CC1(C)C(=O)CC[C@]2(C)[C@H]3C[C@@H](O)[C@@H]4[C@H](O)CC(=O)[C@@]4(C)[C@]3(C)CC[C@@H]12`, for which the IC50 in the assay with Lu1 is 5.8 µM; with KB it was over 100 µM; in the assay with HepG2, 5.7 µM; in the assay on MCF7, 4.3 µM.
The like results for `C/C(=C\CC[C@](C)(O)[C@@H]1[C@H]2CC[C@@H]3[C@@]4(C)CCC(=O)C(C)(C)[C@@H]4CC[C@@]3(C)[C@]2(C)C[C@@H]1O)C(=O)O` were, in that order, over 100 µM, over 100 µM, over 100 µM and over 100 µM.
For `COc1c(-c2ccc(O)cc2)oc2cc(O)cc(O)c2c1=O` [ISOKAEMPFERIDE], in that order: 60.1 µM, 64.8 µM, 62.5 µM and 55.4 µM.
With `CC1(C)[C@@H](O)CC[C@]2(C)[C@H]3C[C@@H](O)[C@@H]4[C@H](O)CC(=O)[C@@]4(C)[C@]3(C)CC[C@@H]12`, the IC50 in the assay with Lu1, in the assay with KB, in the assay with HepG2 and in the assay on MCF7 was over 100 µM in each case.

Source of the values: ChEMBL document CHEMBL4007502, “Cytotoxic dammarane-type triterpenoids from the leaves of Viburnum sambucinum” (Bioorg Med Chem Lett, 2017).
